This note sets out measurements from BindingDB's records for doi:10.1021/jm800797n (University of Tartu, 2009).

Test [1] concerns the target cAMP-dependent protein kinase catalytic subunit alpha (Bos taurus) (UniProt P00517). Put plainly: The assay is based on the kinase-bound labeled fluorescent probe can be displaced by competitive inhibitors, which can be registered by measurement of the resulting change in fluorescence properties of the solution. The binding curves were fitted using GraphPad Prism version 4.03 using sigmoidal dose-respons. Particulars: pH 7.5.

Test [2] shares this target. The experiment in a line: The IC50 values of the inhibitors corresponding to the concentration of the inhibitor decreasing the enzyme activity 50% were measured using fluorescent-labeled substrate. The phosphorylation reaction was initiated by the addition of ATP. At fixed time points, the reaction was analyzed by normal phase TLC. The visualization and quantification.
The target of test [3] is RAC-gamma serine/threonine-protein kinase (Homo sapiens, UniProt Q9Y243). The experiment in a line: Fluorometric TLC Kinase Assay.
Sequence of RAC-gamma serine/threonine-protein kinase (Q9Y243 whole entry): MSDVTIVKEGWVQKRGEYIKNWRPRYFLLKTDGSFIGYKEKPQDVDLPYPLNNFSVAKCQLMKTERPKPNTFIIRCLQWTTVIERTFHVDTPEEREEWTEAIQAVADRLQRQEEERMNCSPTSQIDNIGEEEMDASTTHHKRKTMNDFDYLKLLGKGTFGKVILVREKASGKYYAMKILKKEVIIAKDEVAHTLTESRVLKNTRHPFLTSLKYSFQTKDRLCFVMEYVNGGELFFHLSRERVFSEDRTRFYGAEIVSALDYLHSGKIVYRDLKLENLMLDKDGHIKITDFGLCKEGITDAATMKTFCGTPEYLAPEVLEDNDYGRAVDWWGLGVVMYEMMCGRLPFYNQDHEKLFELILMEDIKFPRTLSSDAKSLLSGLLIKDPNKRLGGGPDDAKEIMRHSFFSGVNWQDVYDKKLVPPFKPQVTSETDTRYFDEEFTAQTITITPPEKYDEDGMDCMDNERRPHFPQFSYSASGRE

On to `O=S(=O)(NCCNC/C=C/c1ccc(Br)cc1)c1cccc2cnccc12`, for which the affinity in test [1], expressed as Kd, was 0.023 µM.

Consider `N=C(N)NCCC[C@@H](NC(=O)[C@@H](CCCNC(=N)N)NC(=O)[C@@H](CCCNC(=N)N)NC(=O)[C@@H](CCCNC(=N)N)NC(=O)[C@@H](CCCNC(=N)N)NC(=O)[C@@H](CCCNC(=N)N)NC(=O)CCCCCNC(=O)[C@H]1O[C@@H](n2cnc3c(N)ncnc32)[C@H](O)[C@@H]1O)C(N)=O`, for which the midpoint of inhibition in test [2], the IC50, lay at 0.0083 µM.

Take `C[C@@H](NC(=O)CCCCCNC(=O)[C@@H]1C[C@@H](O)[C@H](n2cnc3c(N)ncnc32)C1)C(=O)NCCCCCC(=O)N[C@H](CCCNC(=N)N)C(=O)N[C@H](CCCNC(=N)N)C(N)=O` [6-{[(1S,3R,4R)-3-(6-amino-9H-purin-9-yl)-4-hydroxycyclopentyl]formamido}-N-[(1R)-1-[(5-{[(1R)-4-carbamimidamido-1-{[(1R)-4-carbamimidamido-1-carbamoylbutyl]carbamoyl}butyl]carbamoyl}pentyl)carbamoyl]ethyl]hexanamide]: 2.04 µM corresponded to half-maximal inhibition in test [3] (IC50).

Take `NC(=O)[C@@H](CCCN=C(N)N)NC(=O)[C@@H](CCCN=C(N)N)NC(=O)[C@@H](CCCN=C(N)N)NC(=O)[C@@H](CCCN=C(N)N)NC(=O)[C@@H](CCCN=C(N)N)NC(=O)[C@@H](CCCN=C(N)N)NC(=O)CCCCCNC(=O)[C@@H]1C[C@@H](O)[C@H](n2cnc3c(N)ncnc32)C1` [6-{[(1S,3R,4R)-3-(6-amino-9H-purin-9-yl)-4-hydroxycyclopentyl]formamido}-N-[(1R)-4-carbamimidamido-1-{[(1R)-4-carbamimidamido-1-{[(1R)-4-carbamimidamido-1-{[(1R)-4-carbamimidamido-1-{[(1R)-4-carbamimidamido-1-{[(1R)-4-carbamimidamido-1-carbamoylbutyl]carbamoyl}butyl]carbamoyl}butyl]carbamoyl}butyl]carbamoyl}butyl]carbamoyl}butyl]hexanamide]: the IC50 – broadly, the point on the concentration scale where inhibition reaches its midpoint – in test [2] worked out at 0.00241 µM.

For `NC(=O)[C@H](Cc1ccc(C(=O)c2ccccc2)cc1)NC(=O)CCCCCNC(=O)[C@H]1O[C@@H](n2cnc3c(N)ncnc32)[C@H](O)[C@@H]1O` [6-{[(2S,3S,4R,5R)-5-(6-amino-9H-purin-9-yl)-3,4-dihydroxyoxolan-2-yl]formamido}-N-[(1S)-2-(4-benzoylphenyl)-1-carbamoylethyl]hexanamide], in test [1], the Kd (in general, the constant that tells how readily two partners part at equilibrium) is over 100 µM.

`N=C(N)NCCC[C@@H](NC(=O)[C@@H](CCCNC(=N)N)NC(=O)[C@@H](CCCNC(=N)N)NC(=O)[C@@H](CCCNC(=N)N)NC(=O)[C@@H](CCCNC(=N)N)NC(=O)[C@@H](CCCNC(=N)N)NC(=O)CCCCCNC(=O)[C@@H](CCCCN)NC(=O)CCCCCNC(=O)[C@H]1O[C@@H](n2cnc3c(N)ncnc32)[C@H](O)[C@@H]1O)C(N)=O` [(2R)-6-amino-2-(6-{[(2S,3S,4R,5R)-5-(6-amino-9H-purin-9-yl)-3,4-dihydroxyoxolan-2-yl]formamido}hexanamido)-N-(5-{[(1R)-4-carbamimidamido-1-{[(1R)-4-carbamimidamido-1-{[(1R)-4-carbamimidamido-1-{[(1R)-4-carbamimidamido-1-{[(1R)-4-carbamimidamido-1-{[(1R)-4-carbamimidamido-1-carbamoylbutyl]carbamoyl}butyl]carbamoyl}butyl]carbamoyl}butyl]carbamoyl}butyl]carbamoyl}butyl]carbamoyl}pentyl)hexanamide]: in test [1], the Kd was under 0.0005 µM.

For `NC(=O)[C@@H](CCCN=C(N)N)NC(=O)[C@@H](CCCN=C(N)N)NC(=O)[C@@H](CCCN=C(N)N)NC(=O)[C@@H](CCCN=C(N)N)NC(=O)[C@@H](CCCN=C(N)N)NC(=O)[C@@H](CCCN=C(N)N)NC(=O)CCCCCNCCNS(=O)(=O)c1cccc2cnccc12` [N-[(1R)-4-carbamimidamido-1-{[(1R)-4-carbamimidamido-1-{[(1R)-4-carbamimidamido-1-{[(1R)-4-carbamimidamido-1-{[(1R)-4-carbamimidamido-1-{[(1R)-4-carbamimidamido-1-carbamoylbutyl]carbamoyl}butyl]carbamoyl}butyl]carbamoyl}butyl]carbamoyl}butyl]carbamoyl}butyl]-6-{[2-(isoquinoline-5-sulfonamido)ethyl]amino}hexanamide], the IC50 was determined as 0.0053 µM in test [2] and 0.0307 µM in test [3].
